Where a name gives a salt, the structure may show the parent alone. Read-outs that look alike come from different tables or passages of the source.
Key:
[1] = system: U87MG serving as a glioma cell strain; experiment: Cytotoxicity test against brain tumor cells (cell-counting kit-8); type: cell-based; settings: Homo sapiens, U-87 MG
Procedure: The in vitro cytotoxicity of the vinblastine sulfate and the drug conjugate (DAVBNH bonded polymer micelle of Example 1) was evaluated using cell-counting kit-8 with respect to U87MG serving as a glioma cell strain. The U87MG cells (3000 cells/well) were cultured in a DMEM medium containing 10% FBS using a 96-well plate. Thereafter, the U87MG cells were exposed to the vinblastine sulfate or the drug conjugate whose dose was different from that of the vinblastine sulfate. The cell survival rates after 48 hours and 72 hours from the exposure were acquired by measuring the formazan absorbance […] 450 nm.

PC14.PE6 strain = experiment: Cytotoxicity test against lung cancer cells, PC14.PE6
Procedure: (§1) The cytotoxicity test was performed on the K252a-H bonded aromatic polymer micelle and the K252a-H bonded aliphatic polymer micelle using the lung cancer cell strains listed in Table 4.
(§2) 2000 cells/50 μL of a cell solution was adjusted to have an appropriate amount, and 50 μL of the solution was each seeded to the […] of a 96-well plate. Only a culture medium (DMEM culture medium containing 10% FBS) was added to the raw 1. After the seeding, the 96-well plate was incubated for 24 hours.
(§3) 300 μL of a culture medium was added to each of 10 wells of the 24-well plate. 100 μL of the micelle solution was added to the well 1A of the 24-well plate and stirred by pipetting (approximately 10 times), and 100 μL of the micelle solution was transferred to the well 2B and stirred in the same manner as described above. The same operation was repeated 10 times, and micelle solutions having ten different concentrations were prepared.
(§4) 50 μL of each micelle solution adjusted in the above-described manner was added to the row 3 to the row 12 of a 96-well plate seeded with cancer cells in descending order of micelle concentrations of the solutions. Only 50 μL of a culture medium was added to the rows 1 and 2. Thereafter, the 96-well plate was incubated. After the incubation, the cells remained, the solutions in the wells were removed, and the cells in each well were washed with 200 μL of the culture medium. Finally, 100 μL of the culture medium was added to each well and the 96-well plate was incubated for 48 hours.
(§5) After 48 hours, 10 μL of a cell counting kit-8 solution (DOJINDO) was added to each well. The 96-well plate was incubated again, and the absorbance at a wavelength of 450 nm was measured after 30 minutes, 1 hour, and 2 hours.
The PC14.PE6 strain is a cancer cell strain (Yano et al., Oncology Research 9:573 to 579 (1997)) obtained by performing an operation of administering the PC14 strain to the tail vein of a mouse and establishing the cancer cells metastasized to the thoracic cavity six times. Therefore, the PC14.PE6 strain is a cancer cell strain which is extremely metastatic and malignant.

PC14 strain = experiment: Cytotoxicity test against lung cancer cells, PC14
Procedure: as §1, §2, §3, §4, §5
The PC14.PE6 strain is a cancer cell strain (Yano et al., Oncology Research 9:573 to 579 (1997)) obtained by performing an operation of administering the PC14 strain to the tail vein of a mouse and establishing the cancer cells metastasized to the thoracic cavity six times. […]

[2] = mouse; cited from earlier work
[3] = Evaluation of maximum tolerated dose (MTD) of drug conjugate; type: in vivo, mouse
Procedure: The drug was administered to mice (BALB/c Nude, female, 6 weeks old) four times (0 day, 3rd day, 6th day, 9th day) […], and the maximum tolerated dose (MTD) was evaluated. The administration groups were prepared as follows, and the number of mice in each group was set to 5.
Administration group 1: PBS (control)
Administration group 2: 2 mg/kg of DAVBNH (VinHyd)
Administration group 3: 2 mg/kg of DAVBNH bonded polymer micelle (Example 1)
Administration group 4: 4 mg/kg of DAVBNH bonded polymer micelle (Example 1)
Administration group 5: 16 mg/kg of DAVBNH bonded polymer micelle (Example 1)

[4] = Evaluation of maximum tolerated dose (MTD) of DAVBNH; type: in vivo, mouse
Procedure: DAVBNH was administered to mice (BALB/c Nude, female, 6 weeks old) four times (0 day, 3rd day, 6th day, 9th day) […], and the maximum tolerated dose (MTD) was evaluated. The administration groups were prepared as follows, and the number of mice in each group was set to 3.
Administration group 1: 3 mg/kg of DAVBNH
Administration group 2: 4 mg/kg of DAVBNH
Administration group 3: 6 mg/kg of DAVBNH

[5] = system: pancreatic cancer cell strains; experiment: Cytotoxicity test against pancreatic cancer cells; type: cell-based; settings: FIG. 31
Procedure: The cytotoxicity test was performed on the K252a-H bonded aromatic polymer micelle and the K252a-H bonded aliphatic polymer micelle using various pancreatic cancer cell strains in the same manner as described above. The BXPC3-F3 strain is a metastatic strain which became malignant by performing an operation of establishing a cancer cell strain metastasized to the liver after orthotopic transplant into a mouse, three times. Further, KP-3L is a metastatic strain (available from the cell bank of National Institutes of Biomedical Innovation, Health and Nutrition JCRB) obtained by establishing a cancer cell strain metastasized to the liver after human liver metastatic pancreatic cancer was transplanted to the spleen of a nude mouse.

[6] = Solubilization test in water; type: physicochemical; settings: distilled water, UV absorption spectrum of filtrate
Procedure: K252a-H powder was dissolved in distilled water or methanol at a ratio of 1 mg/mL and the solution was sufficiently mixed. Thereafter, the solution was filtered using a filter having a pore diameter of […]. The ultraviolet absorption spectrum of the filtrate prepared as described above was measured using a spectrophotometer (Jasco V670). Based on the results of FIG. 27, it was confirmed that K252a-H was only dissolved in water at a ratio of 1 μg/mL or less.
Meanwhile, the K252a-H bonded aromatic polymer micelle and the K252a-H bonded aliphatic polymer micelle were dissolved in water, and the concentration of K252a-H was measured using HPLC.

[7] = system: head and neck cancer cell strains; experiment: Cytotoxicity test against head and neck cancer cells; type: cell-based; settings: all head and neck cancer cell strains, FIG. 32
Procedure: The cytotoxicity test was performed on the K252a-H bonded aromatic polymer micelle and the K252a-H bonded aliphatic polymer micelle using various head and neck cancer cell strains in the same manner as described above. Further, CDDP indicates Cisplatin serving as a target treatment drug for head and neck cancer.

[8] = target: mutant kinases (list of FIG. 42); experiment: Hot spot kinase profiling, Monthly 202 mutant kinase panel; type: biochemical; settings: 100 nM, ATP 10 μM, mutant kinases listed in FIG. 42
Procedure: (§6) The kinase profiling of K252a-H was performed using Monthly 202 mutant kinase panel by entrustment with Reaction Biology Corporation. The conditions for the kinase assay are as follows. KK252a was dissolved in DMSO and the assay was performed at 100 nM.
(§7) Buffer condition: 20 mM HEPES, pH of 7.5, 10 mM MgCl2, 1 mM EGTA, (in a case of being applicable, 2 mM MnCl2)

[9] = system: mesothelioma cell strain MSTO-211H; experiment: Cytotoxicity test against mesothelioma cells; type: cell-based; settings: FIG. 33
From the text: Further, CDDP indicates Cisplatin serving as a target treatment drug for mesothelioma. Pemetrexed is also a target treatment drug for mesothelioma.

[10] = system: lung cancer cell strains listed in Table 4; experiment: Cytotoxicity test against lung cancer cells; type: cell-based; settings: FIG. 29
From the text: Further, in the following example, the used cell strains were purchased from the cell bank of American Type Culture. Collection, ATCC or National Institutes of Biomedical Innovation, Health and Nutrition (JCRB). PC14 PE6 was distributed from Profession Hosho (Tottori University). As the culture medium, DMEM, RPMI, or E-MEM was used unless otherwise specified. Gefitinib, Afatinib, Erlotinib, Cisplatin, Pemetrexed, and Gemicitabine were purchased from Funakoshi Co., Ltd. Osimertinib was purchased from Sellek Chemicals LLC.
Thereafter, the 96-well plate was incubated.

RET = experiment: Hot spot kinase profiling; type: biochemical; settings: 100 nM, ATP 10 μM
Procedure: as §6, §7

c-kit = experiment: Hot spot kinase profiling; type: biochemical; settings: 100 nM, ATP 10 μM
Procedure: as §6, §7

Flt3 = experiment: Hot spot kinase profiling; type: biochemical; settings: 100 nM, ATP 10 μM
Procedure: as §6, §7

EGFR T790M = target: T1, EGFR T790M (Homo sapiens, UniProt P00533, T790M); experiment: Hot spot kinase profiling, EGFR mutation; type: biochemical; settings: 100 nM, ATP 10 μM, FIG. 40
T1 construct: purchased Reaction Biology Corporation
Procedure: as §6, §7

EGFR L858R = target: T2, EGFR L858R (Homo sapiens, UniProt P00533, L858R); experiment: Hot spot kinase profiling, EGFR mutation; type: biochemical; settings: 100 nM, ATP 10 μM, FIG. 40
T2 construct: purchased Reaction Biology Corporation
Procedure: as §6, §7

EGFR d746-750/T790M = target: T3, EGFR d746-750/T790M (Homo sapiens, UniProt P00533, DEL746-750/T790M); experiment: Hot spot kinase profiling, EGFR mutation; type: biochemical; settings: 100 nM, ATP 10 μM, FIG. 40
T3 construct: purchased Reaction Biology Corporation
Procedure: as §6, §7

[11] = target: T4, EGFR d746-750/T790M/C797S (Homo sapiens, UniProt P00533, C797S/DEL746-750/T790M); experiment: Hot spot kinase profiling, EGFR mutation; type: biochemical; settings: 100 nM, ATP 10 μM, FIG. 40
T4 construct: purchased Reaction Biology Corporation
Procedure: as §6, §7

[12] = malignant metastatic strain, compared with PC14

Compound: CC[C@]1(O)C[C@@H]2CN(CCc3c([nH]c4ccccc34)[C@@](C(=O)OC)(c3cc4c(cc3OC)N(C)[C@H]3[C@@](O)(C(=O)OC)[C@H](OC(C)=O)[C@]5(CC)C=CCN6CC[C@]43[C@@H]65)C2)C1 [Vinblastine sulfate, vinblastine sulfate]
- IC50 ([1]; 48 hours from the exposure, read-out: IC50 48 hours): 1.4 nM
- IC50 ([1]; 72 hours from the exposure, read-out: IC50 72 hours): 1.7 nM

Compound: C=CC(=O)Nc1cc(Nc2nccc(-c3cn(C)c4ccccc34)n2)c(OC)cc1N(C)CCN(C)C [Osimertinib]
- cytotoxic activity against the PC14.PE6 strain (PC14.PE6 strain): significantly decreased
- cytotoxic activity against the PC14 strain (PC14 strain): excellent cytotoxic activity

Compound: COc1cc2ncnc(Nc3ccc(F)c(Cl)c3)c2cc1OCCCN1CCOCC1 [Gefitinib]
- cytotoxic activity against the PC14.PE6 strain (PC14.PE6 strain): significantly decreased
- cytotoxic activity against the PC14 strain (PC14 strain): excellent cytotoxic activity

Compound: CC[C@]1(O)C[C@@H]2CN(CCc3c([nH]c4ccccc34)[C@@](C(=O)OC)(c3cc4c(cc3OC)N(C)[C@H]3[C@@](O)(C(=O)OC)[C@H](OC(C)=O)[C@]5(CC)C=CCN6CC[C@]43[C@@H]65)C2)C1 [Vinblastine, vinblastine]
- maximum tolerated dose [2]: 2 mg/kg

Compound: CC[C@]1(O)C[C@@H]2CN(CCc3c([nH]c4ccccc34)[C@@](C(=O)OC)(c3cc4c(cc3OC)N(C)[C@H]3[C@@](O)(C(=O)NN)[C@H](O)[C@]5(CC)C=CCN6CC[C@]43[C@@H]65)C2)C1 [DAVBNH, desacetyl vinblastine hydrazide]
- weight loss ([3]; dose 2 mg/kg): a weight loss occurs
- MTD ([3]; female, BALB/c Nude, mouse, in vivo, 2 mg/kg, mice, as used in Example 8): 2 mg/kg
- weight loss ([4]; dose of 3 mg/kg, after only 25% of the treatment schedule): significant weight loss was observed
- lethal dose ([4]; mice, four administrations): 6 mg/kg

Compound: CN(C)C/C=C/C(=O)Nc1cc2c(Nc3ccc(F)c(Cl)c3)ncnc2cc1O[C@H]1CCOC1 [Afatinib]
- cytotoxic activity against the PC14.PE6 strain (PC14.PE6 strain; [12]): significantly decreased
- cytotoxic activity against the PC14 strain (PC14 strain; FIGS. 29 and 30): excellent cytotoxic activity

Compound: C#Cc1cccc(Nc2ncnc3cc(OCCOC)c(OCCOC)cc23)c1 [Erlotinib]
- effect on K-ras mutant strains and malignant metastatic strains [5]: not largely affected

Compound: Nc1ccn([C@@H]2O[C@H](CO)[C@@H](O)C2(F)F)c(=O)n1 [Gemcitabine]
- effect on K-ras mutant strains and malignant metastatic strains [5]: not largely affected

Compound: CC12OC(CC1(O)C(=O)NN)n1c3ccccc3c3c4c(c5c6ccccc6n2c5c31)CNC4=O (centres unmarked) [Example K252a-H, K252a hydrazide]
- dissolved in water [6]: ≤ 1 µg/mL
- cytotoxic activity compared with Cisplatin [7]: higher cytotoxic activity against all head and neck cancer cell strains than that of Cisplatin
- kinase activity suppressed to [8]: ≤ 30%
- cytotoxic activity compared with Cisplatin and Pemetrexed [9]: higher cytotoxic activity than that of Cisplatin and Pemetrexed
- cytotoxic activity against the PC14.PE6 strain (PC14.PE6 strain; [12]): increased
- cytotoxic activity against lung cancer having resistance to lung cancer treatment drugs of the related art [10]: excellent cytotoxic activity
- inhibition of oncogene RET (RET): strong inhibitor
- inhibition of oncogene c-kit (c-kit): strong inhibitor
- inhibition of oncogene Flt3 (Flt3): strong inhibitor
- effect on K-ras mutant strains and malignant metastatic strains [5]: effective for K-ras mutant strains and malignant metastatic strains
- activity against EGFR gatekeeper mutation T790M (EGFR T790M): specifically high activity
- activity against EGFR gatekeeper mutation L858R (EGFR L858R): specifically high activity
- activity against EGFR gatekeeper mutation d746-750/T790M (EGFR d746-750/T790M): specifically high activity
- activity against EGFR gatekeeper mutation d746-750/T790M/C797S [11]: specifically high activity
